In one series the test system is JC virus. The conditions noted are these: cited from earlier work.
In the next series the target is 5-HT2A (Homo sapiens, UniProt P28223). The conditions noted are these: cited from earlier work.
For a further series, the system named is heatstroke. The conditions noted are these: in vivo; cited from earlier work.
The subject of series [1] is spontaneously hypertensive rats. The conditions noted are these: cited from earlier work.
The subject of a further series is glaucoma patients. The conditions noted are these: cited from earlier work.
The test system of a further series is inflammatory pain. The conditions noted are these: rats, intrathecal or intraperitoneal administration; cited from earlier work.
For another series, the system named is diabetic nephropathy. The conditions noted are these: trial of 24 months of treatment; cited from earlier work.
The test system of series [2] is lower back pain, leg pain and numbness associated with sciatica. The conditions noted are these: humans; cited from earlier work.
The subject of the next series is thermal induced pain. The conditions noted are these: rats, intraperitoneal administration; cited from earlier work.
A short description of series [3]: slurry of the anhydrous form in water. The series is classed as physicochemical. The conditions noted are these: stirred at about 26-28° C. for ~3 days. The procedure:
A slurry of anhydrous 4-(2-(4-(3-methoxybenzamido)-2-(1-methyl-1H-pyrazol-5-yl)phenoxy)ethyl)morpholin-4-ium chloride in water was stirred at ambient/stir plate temperature (about 26-28° C.) for ˜3 days.

For series [4], the system named is DOCA-salt induced hypertension. The conditions noted are these: rats; cited from earlier work.

5-HT2A, sequence (P28223 whole entry, species assumed): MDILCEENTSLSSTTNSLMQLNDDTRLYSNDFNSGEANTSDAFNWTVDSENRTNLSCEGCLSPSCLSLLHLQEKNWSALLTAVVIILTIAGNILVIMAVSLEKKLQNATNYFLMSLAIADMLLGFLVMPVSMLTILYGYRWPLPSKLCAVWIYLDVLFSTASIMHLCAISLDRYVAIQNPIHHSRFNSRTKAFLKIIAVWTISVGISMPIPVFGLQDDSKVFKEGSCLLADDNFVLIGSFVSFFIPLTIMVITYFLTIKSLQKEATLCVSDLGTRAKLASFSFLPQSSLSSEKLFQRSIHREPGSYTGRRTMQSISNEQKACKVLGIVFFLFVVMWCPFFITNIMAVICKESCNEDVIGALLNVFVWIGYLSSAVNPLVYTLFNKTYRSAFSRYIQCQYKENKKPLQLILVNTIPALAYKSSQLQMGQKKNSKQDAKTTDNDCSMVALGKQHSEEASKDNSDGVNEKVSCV

Consider `Cc1nc2sccn2c(=O)c1CCN1CCC(=C(c2ccc(F)cc2)c2ccc(F)cc2)CC1` [ritanserin], for which the “JC virus infection of human glial cells” value in the series with JC virus is “inhibited”. Moreover, the “activity at 5-HT2A” value on 5-HT2A is given as “inverse agonist activity”.

`O=C(c1ccc(F)cc1)C1CCN(CCn2c(=O)[nH]c3ccccc3c2=O)CC1` [ketanserin]: the “protection against circulatory shocks, intracranial hypertension, and cerebral ischemia during heatstroke” value with heatstroke is given as “protect”. Besides, the blood pressure entry in series [1] was “stabilize”. In the series on JC virus, the “JC virus infection of human glial cells” value is on record as “inhibited”. In addition, the “activity at 5-HT2A” value on 5-HT2A is on record as “inverse agonist activity”. Moreover, the IOP result in the series with glaucoma patients is “significantly lower”.

As for `COc1cccc(CCc2ccccc2OCC(CN(C)C)OC(=O)CCC(=O)O)c1` (centres unmarked) [sarpogrelate], the “analgesic effect on inflammatory pain” value with inflammatory pain was “significant analgesic effect”. In addition, in the series with diabetic nephropathy, the “urinary albumin excretion level” value is given as “significantly reduced”. For the same molecule, the “treatment for lower back pain, leg pain and numbness associated with sciatica brought on by lumbar disc herniation” value in [2] is reported as “effective treatment”. For the same molecule, the IOP entry with glaucoma patients was “significantly lower”. In the series on thermal induced pain, the “analgesic effect on thermal induced pain” value is listed as “significant analgesic effect”.

For the molecule `COc1cccc(C(=O)Nc2ccc(OCCN3CCOCC3)c(-c3ccnn3C)c2)c1.Cl` [Example 1, 4-(2-(4-(3-Methoxybenzamido)-2-(1-methyl-1H-pyrazol-5-yl)phenoxy)ethyl)morpholin-4-ium chloride], the “solid form recovered after slurry in water” value in series [3] is given as “anhydrous form was recovered”.

For the molecule `CN1CCN2c3ccccc3Cc3ccccc3C2C1` (centres unmarked) [Mainserin], in [4], the DOCA-salt induced hypertension entry was “prevent”.
